{"source": "patent US5900434A", "about": "“Method for inhibiting the production of interleukin-1 or tumor necrosis factor-α by administering acanthoic acid” (Korea Institute of Science and Technology, priority 1994, dated 1999)", "key": {"[1]": {"tested_on": "TNF-α production in human monocytes and macrophages", "test": "Inhibition of TNF-α production in human monocytes and macrophages (L929 cell lytic assay)", "type": "cell-based", "settings": "5 μg/ml or more of acanthoic acid; silica-stimulated; FIG. 3", "description": "The monocytes and macrophages obtained in Reference Example 1 (1) were incubated with 0.1 to 100 μg/ml of acanthoic acid for an hour and treated with 100 μg/ml of silica for 48 hours. The culture was centrifuged to obtain supernatant, which was then dialyzed against PBS. The activity of IL-1 in the dialyzate was determined in accordance with the method of Gery described in Cellular Immunology, 64, 293-303(1981) as follows. Human monocytes and macrophages were treated with acanthoic acid in accordance with the same procedures as in Example 1, and the activity of TNF-α was measured by cell lytic assay in accordance with the method of Aggarwal as described in J. Biol. Chem., 260, 2345(1985). TNF-α dependent L929 fibroblasts(ATCC CCLl) were suspended in RPMI 1640 medium containing 5% FBS and added to the wells of 96-well incubation plate in an amount of 3×10^4 cells/well. The plate was incubated at 37° C. for 2 hours to make the cells adhere to the incubation plate. […] Then, 100 μl of 33% acetic acid was added to each of the wells to release the dye, and then the O.D. of sample obtained from each of the wells was determined by using ELISA reader with 570 nm reading filter and 405 nm reference filter. The amount of released dye was calculated from the O.D. value with reference to that of the internal control group, i.e., rHu TNF-α(Genzyme)."}, "[2]": {"tested_on": "O2^- production in human monocytes and macrophages", "test": "Production of O2^- in silica-stimulated human monocytes and macrophages", "type": "cell-based", "settings": "10 μg/ml, 1 hour, 100 μg/ml silica, FIG. 5", "description": "Normal human peripheral blood was heparin-treated and diluted with equal amount of Hank's balanced salt solution (HBSS: Ca^2+ and Mg^2+ free). The diluted blood was put into a centrifuge tube containing therein Ficoll-Hypaque(Sigma, St. Louis, Mo., U.S.A.) layer having a density of 1.077 piled up on Ficoll-Hypaque layer having a density of 1.119, and then centrifuged at 700×g for 30 minutes to obtain monocytes from the layer between Ficoll-Hypaque layer having a density of 1.077 and serum layer, and neutrophils from the layer between Ficoll-Hypaque layer having a density of 1.077 and that having a density of 1.119. The separated cells were washed twice with 4° C. HBSS(Ca^2+ and Mg^2+ free) and suspended in RPMI 1640 medium(Gibco, Grand Island, N.Y., U.S.A.) containing 10% fetal bovine serum(FBS, Hyclone, Logan, Utah, U.S.A.). The suspensions were added to the wells of 24-well incubation plate(Costar, Cambridge, Mass., U.S.A.) and incubated at 37° C. for 2 hours to obtain monocytes, macrophages and neutrophils. […] The change of color of the supernatant caused by the reduction of cytochrome C was measured at 550 nm by using a UV-Visible spectrophotometer (Kontron Instrument, Milano, Italy). […]"}, "[3]": {"tested_on": "collagen in rat pulmonary tissue", "test": "Inhibition of collagen synthesis in rat pulmonary tissues (hydroxyproline)", "type": "in vivo", "settings": "rat pulmonary tissue treated with silica, DMSO and acanthoic acid; normal = 100%; FIG. 8", "description": "IL-1 and TNF-α are known as cytokines which cause fibrosis and induce collagen synthesis in rat fibroblast(Kang, H. S., et al., Korean. J. Immunol., 14, 193(1992)). For the purpose of confirming the ability of acanthoic acid to suppress the action of IL-1 and TNF-α, its inhibitory effect on the collagen synthesis in rat pulmonary fibroblast and pulmonary tissues was determined. The amount of produced collagen in the culture of rat pulmonary fibroblast was measured by an indirect ELISA method, and that of pulmonary tissue was determined by measuring the concentration of hydroxyproline and calculating the amount of collagen therefrom by using the standard curve of internal control group. Further, for the purpose of determining the amount of synthesized collagen in rat pulmonary tissues, the amount of hydroxyproline was measured as follows. 0.1 to 0.2 g of the rat pulmonary tissue was mixed with 1 ml of PBS and then crushed in a Pyrex tube(Corning, Rochester, N.Y., U.S.A.). […] The resultant was freezed in a freezer, lyophilized in a freeze-dryer(Labconco) and dissolved completely in 1 ml of distilled water. 50 μl of the resulting solution was diluted with 50 μl of distilled water in a microcentrifuge tube. […] O.D. of the sample was measured at 650 nm, and the amount of hydroxyproline in the sample was calculated by employing the standard curve of internal control group."}}, "data": [{"smiles": "C=C[C@@]1(C)CC=C2C(CCC3[C@](C)(C(=O)O)CCC[C@@]23C)C1", "note": "(single isomer, unassigned; (-)) [acanthoic acid, (-)-pimara-9(11),15-diene-19-oic acid]", "values": [{"measurement": "inhibition of production of TNF-α", "setting": "[1]", "value": "at least 90%"}, {"measurement": "amount of O2^-", "setting": "[2]", "value": "decrease significantly"}, {"measurement": "decrease of amount of synthesized collagen", "setting": "[3]", "value": "about 50%"}]}]}
